What all share (type): in vivo
In experiment [1] the test system is Septoria tritici. As to the kind of experiment: Test D: wheat leaf blotch, preventive spray on wheat seedlings. The following applies: 200 ppm test suspension, inoculated following day, visual rating, relative to controls. As to the method: General protocol for preparing test suspensions for Tests A-D: the test compounds were first dissolved in acetone in an amount equal to 3% of the final volume and then suspended at the desired concentration (in ppm) in acetone and purified water (50/50 mix by volume) containing 250 ppm of the surfactant Trem® 014 (polyhydric alcohol esters). The resulting test suspensions were then used in Tests A-G. Each test was conducted in triplicate, and the results were averaged. Spraying a 200 ppm test suspension to the point of run-off on the test plants was the equivalent of a rate of 800 g/ha. Unless otherwise indicated, the rating values indicate a 200 ppm test suspension was used. (An asterisk “*” next to the rating value indicates a 40 ppm test suspension was used.) The test suspension was sprayed to the point of run-off on wheat seedlings. The following day the seedlings were inoculated with a spore suspension of Septoria tritici (the causal agent of wheat leaf blotch) and incubated in saturated atmosphere at 24° C. for 48 h. and then the seedlings were moved to a growth chamber at 20° C. for 19 additional days, after which time visual disease ratings were made. Results for Tests A-G are given in Table A. In the Table, a rating of 100 indicates 100% disease control and a rating of 0 indicates no disease control (relative to the controls). A hyphen (-) indicates no test results.

Experiment [2] concerns Puccinia recondita f. sp. tritici. As to the kind of experiment: Test E: wheat leaf rust, spray after inoculation (curative) on wheat seedlings. The following applies: 200 ppm test suspension, wheat seedlings sprayed after inoculation, visual rating, relative to controls. The method, then:
General protocol for preparing test suspensions for Tests A-D: the test compounds were first dissolved in acetone in an amount equal to 3% of the final volume and then suspended at the desired concentration (in ppm) in acetone and purified water (50/50 mix by volume) containing 250 ppm of the surfactant Trem® 014 (polyhydric alcohol esters). The resulting test suspensions were then used in Tests A-G. Each test was conducted in triplicate, and the results were averaged. Spraying a 200 ppm test suspension to the point of run-off on the test plants was the equivalent of a rate of 800 g/ha. Unless otherwise indicated, the rating values indicate a 200 ppm test suspension was used. (An asterisk “*” next to the rating value indicates a 40 ppm test suspension was used.) Wheat seedlings were inoculated with a spore suspension of Puccinia recondita f. sp. tritici (the causal agent of wheat leaf rust) and incubated in a saturated atmosphere at 20° C. for 24 h, and then moved to a growth chamber at 20° C. for 2 days. After 2 days, the test suspension was sprayed to the point of run-off on the wheat seedlings, and then the seedlings were moved back to the growth chamber at 20° C. for 4 days. Upon removal, visual disease ratings were made. […]

For experiment [3] the test system is unchanged. In words: Test F: wheat leaf rust, preventive spray on wheat seedlings. Conditions: 200 ppm test suspension, inoculated following day, visual rating, relative to controls. As to the method: General protocol for preparing test suspensions for Tests A-D: the test compounds were first dissolved in acetone in an amount equal to 3% of the final volume and then suspended at the desired concentration (in ppm) in acetone and purified water (50/50 mix by volume) containing 250 ppm of the surfactant Trem® 014 (polyhydric alcohol esters). The resulting test suspensions were then used in Tests A-G. Each test was conducted in triplicate, and the results were averaged. Spraying a 200 ppm test suspension to the point of run-off on the test plants was the equivalent of a rate of 800 g/ha. Unless otherwise indicated, the rating values indicate a 200 ppm test suspension was used. (An asterisk “*” next to the rating value indicates a 40 ppm test suspension was used.) The test suspension was sprayed to the point of run-off on wheat seedlings. The following day the seedlings were inoculated with a spore suspension of Puccinia recondita f. sp. tritici (the causal agent of wheat leaf rust) and incubated in a saturated atmosphere at 20° C. for 24 h, and then moved to a growth chamber at 20° C. for 6 days, after which time visual disease ratings were made. Results for Tests A-G are given in Table A. In the Table, a rating of 100 indicates 100% disease control and a rating of 0 indicates no disease control (relative to the controls). A hyphen (-) indicates no test results.

The test system of experiment [4] is Septoria nodorum. As to the kind of experiment: Test C: Septoria glume blotch, preventive spray on wheat seedlings. The following applies: 200 ppm test suspension, inoculated following day, visual rating, relative to controls. The method, then: General protocol for preparing test suspensions for Tests A-D: the test compounds were first dissolved in acetone in an amount equal to 3% of the final volume and then suspended at the desired concentration (in ppm) in acetone and purified water (50/50 mix by volume) containing 250 ppm of the surfactant Trem® 014 (polyhydric alcohol esters). The resulting test suspensions were then used in Tests A-G. Each test was conducted in triplicate, and the results were averaged. Spraying a 200 ppm test suspension to the point of run-off on the test plants was the equivalent of a rate of 800 g/ha. Unless otherwise indicated, the rating values indicate a 200 ppm test suspension was used. (An asterisk “*” next to the rating value indicates a 40 ppm test suspension was used.) The test suspension was sprayed to the point of run-off on wheat seedlings. The following day the seedlings were inoculated with a spore suspension of Septoria nodorum (the causal agent of Septoria glume blotch) and incubated in a saturated atmosphere at 24° C. for 48 h, and then moved to a growth chamber at 20° C. for 9 days, after which time visual disease ratings were made. Results for Tests A-G are given in Table A. In the Table, a rating of 100 indicates 100% disease control and a rating of 0 indicates no disease control (relative to the controls). A hyphen (-) indicates no test results.

For experiment [5], the system named is Alternaria solani. As to the kind of experiment: Test B: tomato early blight, preventive spray on tomato seedlings. The following applies: 200 ppm test suspension, inoculated following day, visual rating, relative to controls. As to the method:
General protocol for preparing test suspensions for Tests A-D: the test compounds were first dissolved in acetone in an amount equal to 3% of the final volume and then suspended at the desired concentration (in ppm) in acetone and purified water (50/50 mix by volume) containing 250 ppm of the surfactant Trem® 014 (polyhydric alcohol esters). The resulting test suspensions were then used in Tests A-G. Each test was conducted in triplicate, and the results were averaged. Spraying a 200 ppm test suspension to the point of run-off on the test plants was the equivalent of a rate of 800 g/ha. Unless otherwise indicated, the rating values indicate a 200 ppm test suspension was used. (An asterisk “*” next to the rating value indicates a 40 ppm test suspension was used.) The test suspension was sprayed to the point of run-off on tomato seedlings. The following day the seedlings were inoculated with a spore suspension of Alternaria solani (the causal agent of tomato early blight) and incubated in a saturated atmosphere at 27° C. for 48 h, and then moved to a growth chamber at 20° C. for 5 days, after which time visual disease ratings were made. Results for Tests A-G are given in Table A. In the Table, a rating of 100 indicates 100% disease control and a rating of 0 indicates no disease control (relative to the controls). A hyphen (-) indicates no test results.

Experiment [6] deals with Blumeria graminis f. sp. tritici. In words: Test G: wheat powdery mildew, preventive spray on wheat seedlings. The following applies: 200 ppm test suspension, inoculated following day with spore dust, visual rating, relative to controls. The method, then: General protocol for preparing test suspensions for Tests A-D: the test compounds were first dissolved in acetone in an amount equal to 3% of the final volume and then suspended at the desired concentration (in ppm) in acetone and purified water (50/50 mix by volume) containing 250 ppm of the surfactant Trem® 014 (polyhydric alcohol esters). The resulting test suspensions were then used in Tests A-G. Each test was conducted in triplicate, and the results were averaged. Spraying a 200 ppm test suspension to the point of run-off on the test plants was the equivalent of a rate of 800 g/ha. Unless otherwise indicated, the rating values indicate a 200 ppm test suspension was used. (An asterisk “*” next to the rating value indicates a 40 ppm test suspension was used.) The test suspension was sprayed to the point of run-off on wheat seedlings. The following day the seedlings were inoculated with a spore dust of Blumeria graminis f. sp. tritici (also known as Erysiphe graminis f. sp. tritici, the causal agent of wheat powdery mildew) and incubated in a growth chamber at 20° C. for 8 days, after which time visual disease ratings were made. Results for Tests A-G are given in Table A. In the Table, a rating of 100 indicates 100% disease control and a rating of 0 indicates no disease control (relative to the controls). A hyphen (-) indicates no test results.

For experiment [7], the system named is Botrytis cinerea. As to the kind of experiment: Test A: tomato Botrytis, preventive spray on tomato seedlings. Conditions: 200 ppm test suspension, inoculated following day, visual rating, relative to controls. The method, then: General protocol for preparing test suspensions for Tests A-D: the test compounds were first dissolved in acetone in an amount equal to 3% of the final volume and then suspended at the desired concentration (in ppm) in acetone and purified water (50/50 mix by volume) containing 250 ppm of the surfactant Trem® 014 (polyhydric alcohol esters). The resulting test suspensions were then used in Tests A-G. Each test was conducted in triplicate, and the results were averaged. Spraying a 200 ppm test suspension to the point of run-off on the test plants was the equivalent of a rate of 800 g/ha. Unless otherwise indicated, the rating values indicate a 200 ppm test suspension was used. (An asterisk “*” next to the rating value indicates a 40 ppm test suspension was used.) The test suspension was sprayed to the point of run-off on tomato seedlings. The following day the seedlings were inoculated with a spore suspension of Botrytis cinerea (the causal agent of tomato Botrytis) and incubated in saturated atmosphere at 20° C. for 48 h, and then moved to a growth chamber at 24° C. for 3 additional days, after which time visual disease ratings were made. Results for Tests A-G are given in Table A. In the Table, a rating of 100 indicates 100% disease control and a rating of 0 indicates no disease control (relative to the controls). A hyphen (-) indicates no test results.

Three compounds from patent US20140235689A1, “FUNGICIDAL PYRAZOLES” (E I DU PONT DE NEMOURS AND COMPANY, priority 2013, published 2014) can be followed below.

For `CNC(c1ccc(F)cc1F)c1c(-c2c(F)cccc2F)c(C)nn1C` (stereo not drawn) [Compound 2, α-(2,4-difluorophenyl)-4-(2,6-difluorophenyl)-N,1,3-trimethyl-1H-pyrazol-5-methanamine], the “Test D disease control rating (100 = 100% disease control, 0 = no disease control)” value in experiment [1] was 99. Moreover, the “Test E disease control rating (100 = 100% disease control, 0 = no disease control)” value in experiment [2] is on record as 0. Also, in experiment [3], the “Test F disease control rating (100 = 100% disease control, 0 = no disease control)” value came to 0. In addition, in experiment [4], the “Test C disease control rating (100 = 100% disease control, 0 = no disease control)” value was determined as 0. For the same compound, the “Test B disease control rating (100 = 100% disease control, 0 = no disease control)” value in experiment [5] is recorded as 0. Also, the “Test G disease control rating (100 = 100% disease control, 0 = no disease control)” value in experiment [6] stood at 82.

Regarding `Cc1nn(C)c(C(N)c2ccc(F)cc2F)c1-c1c(F)cccc1F` (stereo not drawn) [Compound 3, α-(2,4-difluorophenyl)-4-(2,6-difluorophenyl)-1,3-dimethyl-1H-pyrazol-5-methanamine], in experiment [1], the “Test D disease control rating (100 = 100% disease control, 0 = no disease control)” value amounted to 100. Besides, the “Test A disease control rating (100 = 100% disease control, 0 = no disease control)” value in experiment [7] was determined as 98. Moreover, in experiment [3], the “Test F disease control rating (100 = 100% disease control, 0 = no disease control)” value worked out at 99. For the same compound, in experiment [6], the “Test G disease control rating (100 = 100% disease control, 0 = no disease control)” value is recorded as 98.

For `CSC(c1ccc(F)cc1F)c1c(-c2c(F)cccc2F)c(C)nn1C` (centres unmarked) [Compound 4, 4-(2,6-difluorophenyl)-5-[(2,4-difluorophenyl)(methylthio)methyl]-1,3-dimethyl-1H-pyrazole], in experiment [1], the “Test D disease control rating (100 = 100% disease control, 0 = no disease control)” value was found to be 99. For the same compound, the “Test E disease control rating (100 = 100% disease control, 0 = no disease control)” value in experiment [2] was determined as 9. The “Test A disease control rating (100 = 100% disease control, 0 = no disease control)” value in experiment [7] came out at 31. Also, in experiment [3], the “Test F disease control rating (100 = 100% disease control, 0 = no disease control)” value was 85. Besides, the “Test C disease control rating (100 = 100% disease control, 0 = no disease control)” value in experiment [4] is recorded as 0. For the same compound, the “Test B disease control rating (100 = 100% disease control, 0 = no disease control)” value in experiment [5] was 0. Further, in experiment [6], the “Test G disease control rating (100 = 100% disease control, 0 = no disease control)” value amounted to 82.
